Patent US20150159141A1, “ISOLATED HUMAN LIVER TUMOR CELL LINE AND METHOD OF AGENT SCREENING” (Industrial Technology Research Institute, priority 2013, published 2015)

How the values were obtained:
liver cancer = settings: phase III of human clinical trials; cited from earlier work
[1] = tested on: human liver tumor cell line ITRI-H28; experiment: Cell viability of ITRI-H28 cells after Sorafenib treatment (Alarmablue assay); type: cell-based; settings: 48-hour treating period, P value 0.02, read-out: half maximal inhibitory concentration (IC50)
Method: In the experiment, a plurality of plates are prepared with 1×10^4 ITRI-H28 cells seeded respectively thereon and divided into a plurality of groups, and the groups are treated with different concentrations of Sorafenib, such as 30, 15, 7.5, 3.75, 1.88, and 0.94 uM. Next, after a 48-hour treating period, a cell viability of each of the groups is measured by an Alarmablue measurement assay, and results are shown in FIG. 3.
A calculation is done according to the results of FIG. 3, a half maximal inhibitory concentration (IC50) of Sorafenib in the ITRI-H28 cell line are about 2.79±0.41, and a statistical P value is 0.02. According to the above results, the human liver tumor cell line ITRI-H28 has a susceptibility to the HCV-related HCC drug, which is able to use in a HCV-related HCC drug screening. Furthermore, according to the above experiments, the human liver tumor cell line ITRI-H28 has cancer cell properties, which can be used widely in a liver drug screening.

IC50 [1]: ~2790 nM
Compound: CNC(=O)c1cc(Oc2ccc(NC(=O)Nc3ccc(Cl)c(C(F)(F)F)c3)cc2)ccn1 [Sorafenib]
extension of patient survival time (liver cancer): three
